Data published in ChEMBL document CHEMBL5442334, “ASAP - In vitro safety pharmacology profile” (2024).

Experiments:
[1] = target: cGMP-inhibited 3',5'-cyclic phosphodiesterase 3A (Homo sapiens) (UniProt Q14432); test: SafetyScreen: PDE3A Human Phosphodiesterase Enzymatic LeadHunter Assay, catalogue number: 4072; assay type: functional; conditions: Test compound concentration 10.0 uM
[2] = target: Beta-2 adrenergic receptor (Homo sapiens) (UniProt P07550); test: SafetyScreen: beta2 Human Adrenoceptor GPCR Binding Antagonist Radioligand LeadHunter Assay, catalogue number: 20; conditions: Test compound concentration 10.0 uM
[3] = target: T1, Amine oxidase [flavin-containing] A (Rattus norvegicus, UniProt P21396); test: SafetyScreen: Monoamine Oxidase A (MAO-A) Rat Binding Antagonist Radioligand LeadHunter Assay, catalogue number: 443; conditions: at 10 µM, test compound concentration 10 uM
T1 sequence (P21396 whole entry): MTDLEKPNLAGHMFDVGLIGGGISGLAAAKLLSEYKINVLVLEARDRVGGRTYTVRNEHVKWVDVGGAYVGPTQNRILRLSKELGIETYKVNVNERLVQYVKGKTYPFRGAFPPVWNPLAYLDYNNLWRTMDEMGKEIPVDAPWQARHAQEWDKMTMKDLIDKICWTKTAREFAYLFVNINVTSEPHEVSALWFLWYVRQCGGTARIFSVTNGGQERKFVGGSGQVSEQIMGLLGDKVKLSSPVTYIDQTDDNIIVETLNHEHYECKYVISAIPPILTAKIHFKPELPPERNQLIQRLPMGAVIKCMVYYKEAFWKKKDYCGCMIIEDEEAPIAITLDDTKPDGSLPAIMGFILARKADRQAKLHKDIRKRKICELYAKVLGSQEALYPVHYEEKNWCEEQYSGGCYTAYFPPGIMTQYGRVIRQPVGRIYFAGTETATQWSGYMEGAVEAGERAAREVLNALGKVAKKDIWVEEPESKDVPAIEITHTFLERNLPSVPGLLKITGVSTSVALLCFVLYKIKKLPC

[4] = target: Kappa-type opioid receptor (Homo sapiens) (UniProt P41145); test: SafetyScreen: kappa (KOP) Human Opioid GPCR Binding Agonist Radioligand LeadHunter Assay, catalogue number: 4461; conditions: Test compound concentration 10.0 uM
[5] = target: Histamine H2 receptor (Homo sapiens) (UniProt P25021); test: SafetyScreen: H2 Human Histamine GPCR Binding Antagonist Radioligand LeadHunter Assay, catalogue number: 1208; conditions: Test compound concentration 10.0 uM
Sequence of Histamine H2 receptor (Homo sapiens) (P25021 whole entry): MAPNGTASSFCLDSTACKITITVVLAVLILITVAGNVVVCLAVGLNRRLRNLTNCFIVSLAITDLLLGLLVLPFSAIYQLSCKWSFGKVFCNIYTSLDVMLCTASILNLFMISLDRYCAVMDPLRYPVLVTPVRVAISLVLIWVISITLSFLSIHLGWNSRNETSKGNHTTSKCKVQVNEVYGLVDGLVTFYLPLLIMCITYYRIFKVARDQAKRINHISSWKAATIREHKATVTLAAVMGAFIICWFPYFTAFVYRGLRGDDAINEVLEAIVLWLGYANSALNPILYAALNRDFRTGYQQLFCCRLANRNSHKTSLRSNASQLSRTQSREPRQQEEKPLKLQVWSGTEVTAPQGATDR

Sequence of Beta-2 adrenergic receptor (Homo sapiens) (P07550 whole entry, looked up): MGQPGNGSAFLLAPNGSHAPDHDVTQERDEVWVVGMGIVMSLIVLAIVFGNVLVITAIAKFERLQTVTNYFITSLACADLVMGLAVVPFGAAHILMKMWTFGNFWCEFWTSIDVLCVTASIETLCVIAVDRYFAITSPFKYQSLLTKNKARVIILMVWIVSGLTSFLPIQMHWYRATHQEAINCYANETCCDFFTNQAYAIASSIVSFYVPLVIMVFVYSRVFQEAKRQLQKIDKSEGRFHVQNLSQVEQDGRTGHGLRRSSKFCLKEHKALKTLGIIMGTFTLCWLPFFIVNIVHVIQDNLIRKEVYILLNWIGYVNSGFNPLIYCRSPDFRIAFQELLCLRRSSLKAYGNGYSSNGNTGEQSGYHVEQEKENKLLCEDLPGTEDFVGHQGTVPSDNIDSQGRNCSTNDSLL
Sequence of cGMP-inhibited 3',5'-cyclic phosphodiesterase 3A (Homo sapiens) (Q14432 whole entry): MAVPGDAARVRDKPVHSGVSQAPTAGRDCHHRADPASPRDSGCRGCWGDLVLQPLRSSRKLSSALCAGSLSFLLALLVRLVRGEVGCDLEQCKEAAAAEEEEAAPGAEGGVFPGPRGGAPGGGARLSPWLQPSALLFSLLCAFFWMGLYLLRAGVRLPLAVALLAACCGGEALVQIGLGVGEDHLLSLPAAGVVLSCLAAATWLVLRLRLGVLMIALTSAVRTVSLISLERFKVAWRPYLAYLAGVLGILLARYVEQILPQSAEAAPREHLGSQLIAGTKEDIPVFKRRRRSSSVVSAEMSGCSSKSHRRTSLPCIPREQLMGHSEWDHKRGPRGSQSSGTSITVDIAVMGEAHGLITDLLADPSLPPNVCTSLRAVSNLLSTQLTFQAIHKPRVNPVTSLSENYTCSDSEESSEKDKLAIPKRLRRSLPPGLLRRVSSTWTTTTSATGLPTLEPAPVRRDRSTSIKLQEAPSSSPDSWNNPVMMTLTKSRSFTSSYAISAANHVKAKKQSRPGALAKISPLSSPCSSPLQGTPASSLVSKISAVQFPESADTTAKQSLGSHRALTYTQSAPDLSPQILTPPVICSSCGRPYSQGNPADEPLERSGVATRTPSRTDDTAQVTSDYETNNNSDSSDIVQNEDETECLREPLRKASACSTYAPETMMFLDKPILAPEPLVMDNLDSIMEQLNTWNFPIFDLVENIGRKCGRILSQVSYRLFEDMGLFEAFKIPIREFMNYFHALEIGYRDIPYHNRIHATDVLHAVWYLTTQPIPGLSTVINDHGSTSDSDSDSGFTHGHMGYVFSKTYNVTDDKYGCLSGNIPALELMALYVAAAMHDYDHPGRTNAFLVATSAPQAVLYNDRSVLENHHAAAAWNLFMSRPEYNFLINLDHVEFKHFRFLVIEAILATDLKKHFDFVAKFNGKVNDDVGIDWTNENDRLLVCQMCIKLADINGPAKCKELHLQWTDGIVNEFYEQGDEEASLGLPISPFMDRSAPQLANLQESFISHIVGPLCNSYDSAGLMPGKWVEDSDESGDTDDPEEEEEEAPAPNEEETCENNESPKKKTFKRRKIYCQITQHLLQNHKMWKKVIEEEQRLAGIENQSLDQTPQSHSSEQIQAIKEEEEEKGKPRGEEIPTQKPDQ
Sequence of Kappa-type opioid receptor (Homo sapiens) (P41145 whole entry): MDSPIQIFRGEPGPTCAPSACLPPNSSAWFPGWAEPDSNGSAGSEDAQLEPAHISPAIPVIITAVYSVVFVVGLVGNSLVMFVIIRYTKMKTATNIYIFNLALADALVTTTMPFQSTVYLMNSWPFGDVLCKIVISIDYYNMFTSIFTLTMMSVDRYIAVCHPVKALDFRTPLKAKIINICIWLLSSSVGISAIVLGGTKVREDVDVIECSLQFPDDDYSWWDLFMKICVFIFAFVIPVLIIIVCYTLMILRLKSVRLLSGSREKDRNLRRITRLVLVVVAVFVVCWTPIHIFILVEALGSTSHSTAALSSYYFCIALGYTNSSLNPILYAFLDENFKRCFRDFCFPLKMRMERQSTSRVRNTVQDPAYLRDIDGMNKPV

SMILES: CC(C)[C@H](Nc1ncnc2[nH]c(-c3cnn(C)c3C#N)cc12)c1ccc2c(n1)OCCO2
- inhibition [1]: 37%
- inhibition [2]: 3%
- Inhibition [3]: 4%
- inhibition [4]: 31%

SMILES: CC(C)[C@@H](Nc1ncnc2[nH]c(-c3cnn(C)c3C#N)cc12)c1ccc2c(n1)OCCO2
- inhibition [1]: 37%
- inhibition [2]: 3%
- Inhibition [3]: 8%
- inhibition [4]: 56%

SMILES: COc1ccc([C@H](Cc2nnn[nH]2)NC(=O)c2ncnc3[nH]ccc23)cc1
- inhibition [1]: 62%
- inhibition [2]: -6%
- Inhibition [3]: 0%
- inhibition [4]: 2%

SMILES: C[C@H](C(=O)O)[C@@H](NC(=O)c1ncnc2[nH]ccc12)c1ccc(Br)cc1
- inhibition [1]: 52%
- inhibition [2]: -8%
- Inhibition [3]: -1%
- inhibition [4]: 2%

SMILES: CC(C)[C@@H](Nc1ncnc2[nH]c(C(=O)N[C@@H]3CCN(C)C3)cc12)c1ccc2c(c1)S(=O)(=O)CCC2
- inhibition [1]: 4%
- inhibition [2]: -3%
- Inhibition [3]: 3%
- inhibition [5]: -9%
- inhibition [4]: 78%

SMILES: CC(C)[C@H](Nc1ncnc2[nH]ccc12)c1ccc2c(c1)S(=O)(=O)CCC2
- inhibition [1]: 29%
- inhibition [2]: -1%
- Inhibition [3]: 7%
- inhibition [5]: -6%
- inhibition [4]: 84%

SMILES: CNCc1cc(-c2cc3c(N[C@@H](c4ccc5c(c4)S(=O)(=O)CCC5)C(C)C)ncnc3[nH]2)co1
- inhibition [1]: -5%
- inhibition [2]: 6%
- Inhibition [3]: 11%
- inhibition [5]: -3%
- inhibition [4]: 57%

SMILES: CNC(=O)Cn1cc(-c2cc3c(N[C@@H](c4ccc5c(c4)S(=O)(=O)CCC5)C(C)C)ncnc3[nH]2)cn1
- inhibition [1]: -9%
- inhibition [2]: 0%
- Inhibition [3]: 8%
- inhibition [4]: 21%

SMILES: Cc1nn(C)cc1-c1cc2c(N[C@H](c3ccc4c(c3)S(=O)(=O)CCC4)C(C)C)ncnc2[nH]1
- inhibition [1]: 46%
- inhibition [2]: -7%
- Inhibition [3]: 5%
- inhibition [5]: -4%
- inhibition [4]: 45%

SMILES: Cn1ncc(-c2cc3c(N[C@@H](c4ccc5c(n4)OCCO5)C(C)(C)C)ncnc3[nH]2)c1C#N
- inhibition [1]: 37%
- inhibition [2]: 4%
- Inhibition [3]: 10%
- inhibition [5]: -10%
- inhibition [4]: 33%
